Paper PMC9948168, “Vanillin-Based Indolin-2-one Derivative Bearing a Pyridyl Moiety as a Promising Anti-Breast Cancer Agent via Anti-Estrogenic Activity” (ACS Omega, 2023)
Where two headings read alike, the source gives them in different places.

What was measured:
Type in all cases: cell-based, human
MCF-7 cells [1] = assay: iCELLigence real-time cell analysis; conditions: for viability at 2 µM / viability at 5 µM / viability at 10 µM / viability at 20 µM / viability at 50 µM / viability at 100 µM / IC50: MCF-7; for viability at 2 µM / viability at 5 µM / viability at 10 µM / viability at 20 µM / viability at 50 µM / viability at 100 µM: relative to control, read-out: cell viability (% ± SEM)
Procedure: Therefore, compound 6j was applied in serial doses (2, 5, 10, 20, 50, and 100 μM) to MCF-7 cells and parallel to MCF-12A cells to determine the selectivity and safety. The treatments were performed 24 h after seeding the cells on system-specific biosensor-based plates. A total of 120 h of analyses were monitored, with cell viability measurements taken every 15 min. […] In addition, the viability percentage values for each dose in these periods were calculated and are summarized in Table 3 for MCF-7 and Table 4 for MCF-12A. […] In these treatments, cells were not killed dramatically after adding the highest two doses of 6j (100 and 50 μM); instead, they entered the stationary phase.
MCF-7 (Cat. no. HTB-22) (human estrogen receptor-positive breast cancer) and MCF-12A (Cat. no. CRL-10782) (human non-tumorigenic mammary epithelial) cell lines were obtained from the American Type Culture Collection (ATCC, Rockville, Maryland, USA). MCF-7 cells were maintained in Dulbecco’s modified Eagle’s medium (DMEM) (Biological Industries, Haemek, Israel) supplemented with 10% heat-inactivated fetal bovine serum (FBS) (Biowest, Nuaillé, France), 2 mM L-glutamine (Biological Industries, Haemek, Israel), 100 U/mL penicillin and 100 μg/mL streptomycin (Gibco, Waltham, MA, USA), and 2.5 μg/mL plasmocin (Invivogen, Toulouse, France) at 37 °C in a 5% CO2 humidified incubator. MCF-12A cells were cultured in a DMEM/F-12 Nutrient Mixture (Ham) (DMEM/F12 1:1 with HEPES and L-glutamine) (Gibco, Waltham, MA, USA) with 10% heat-inactivated FBS, 100 U/mL penicillin, 100 μg/mL streptomycin, and 10 μg/mL insulin (Humulin R, Lilly, Indianapolis, USA), 20 ng/mL epidermal growth factor (Abcam, Cambridge, UK), […] hydrocortisone (Dekort, Deva Ilac, Istanbul, Turkey), and 2.5 μg/mL plasmocin in a humidified atmosphere of 5% CO2 at 37 °C. The cells were routinely cultured in cell culture flasks and checked regularly under an inverted microscope. Cells reaching 80% confluency were passaged by treatment with 0.25% trypsin–EDTA. Total cell numbers were counted by the trypan blue dye exclusion method using a hemocytometer prior to the experiments.
The iCELLigence real-time cell analysis system was used to conduct a real-time and label-free examination of the activities of compound 6j on cells as we previously described.[62] In brief, following a background measurement with 200 μL of complete medium on iCELLigence E-plate L8, 100 μL of MCF-7 or MCF-12A cells was seeded at a density of 5.0 × 10^3 per well. During the 120 h monitoring, the system took impedance measurements via biosensors every 15 min. At the 24th h of incubation, the cells were treated with increasing concentrations of the 6j compound (2, 5, 10, 20, 50, and 100 μM) in duplicate. For cell culture experiments, compound 6j was dissolved in DMSO (Sigma, St. Louis, USA) at a stock concentration of 20 mM. For treatments, dilutions were prepared from 20 mM stock with a cell growth medium, with a final DMSO concentration of 0.1%. The medium containing 0.1% DMSO was also used as a negative control. […] Data were recorded by the iCELLigence software for 120 h and analyzed at the end of the study.

MCF-12A cells = assay: Morphological assessment under inverted microscope; conditions: 50 and 100 μM; 48 h after treatment
Procedure: (§1) In addition to the viability analyses, morphological evaluations were performed after treating the cells with different doses of 6j (5, 10, 20, 50, and 100 μM) to better understand what was going on in the plate wells. The cells were photographed under an inverted microscope 48 h after 6j treatment. […] The cell morphology has not deteriorated, and the membrane structures were preserved in a healthy way in the 6j-applied cells.
(§2) Morphological studies were performed to observe the effects of 6j on MCF-7 and MCF-12A cells, as previously reported.[63] In brief, 5 × 10^5 cells were seeded into six-well plates and incubated for 24 h. Afterward, increasing doses of compound 6j (5, 10, 20, 50, and 100 μM) were applied to the cells. The medium containing 0.1% DMSO was used as the untreated control. 48 h after treatments, the cells were photographed under an inverted microscope, Leica DM IL LED with a DFC-290 camera (Leica, Wetzlar, Germany).

MCF-7 cells [2] = assay: Morphological assessment under inverted microscope; conditions: 50 and 100 μM; 48 h after treatment
Procedure: as §1, §2

SMILES: COc1cc(C=C2C(=O)Nc3ccc(Cl)cc32)ccc1OCc1ccccn1 (mixture of isomers) [6j]
- inhibition of MCF-7 viability (MCF-7 cells [1]; 20 μM, compared with same concentration of tamoxifen): 30%
- growth of MCF-7 cells (MCF-7 cells [1]; 100 and 50 μM, all time points): completely inhibited the growth
- inhibition at 10 µM (MCF-7 cells [1]; Homo sapiens, MCF7, 10 μM, from growth curves): 25%
- inhibition at 20 µM (MCF-7 cells [1]; Homo sapiens, MCF7, 20 μM, all time points, from growth curves): ~50%
- viability at 2 µM (MCF-7 cells [1]; Homo sapiens, MCF7, 24 h): 91.38 ± 0.01%
- viability at 2 µM (MCF-7 cells [1]; Homo sapiens, MCF7, 48 h): 91.38 ± 0.01%
- viability at 2 µM (MCF-7 cells [1]; Homo sapiens, MCF7, 72 h): 91.38 ± 0.01%
- viability at 2 µM (MCF-7 cells [1]; Homo sapiens, MCF7, 96 h): 90.67 ± 0.01%
- viability at 5 µM (MCF-7 cells [1]; Homo sapiens, MCF7, 24 h): 84.83 ± 0.01%
- viability at 5 µM (MCF-7 cells [1]; Homo sapiens, MCF7, 48 h): 83.01 ± 0.02%
- viability at 5 µM (MCF-7 cells [1]; Homo sapiens, MCF7, 72 h): 83.01 ± 0.02%
- viability at 5 µM (MCF-7 cells [1]; Homo sapiens, MCF7, 96 h): 82.54 ± 0.01%
- viability at 10 µM (MCF-7 cells [1]; Homo sapiens, MCF7, 10 μM, 24 h): 80 ± 0.01%
- viability at 10 µM (MCF-7 cells [1]; Homo sapiens, MCF7, 10 μM, 48 h): 76.59 ± 0.01%
- viability at 10 µM (MCF-7 cells [1]; Homo sapiens, MCF7, 10 μM, 72 h): 76.59 ± 0.01%
- viability at 10 µM (MCF-7 cells [1]; Homo sapiens, MCF7, 10 μM, 96 h): 74.2%
- viability at 20 µM (MCF-7 cells [1]; Homo sapiens, MCF7, 20 μM, 24 h): 70.25 ± 0.02%
- viability at 20 µM (MCF-7 cells [1]; Homo sapiens, MCF7, 20 μM, 48 h): 64.29 ± 0.02%
- viability at 20 µM (MCF-7 cells [1]; Homo sapiens, MCF7, 20 μM, 72 h): 51.2 ± 0.01%
- viability at 20 µM (MCF-7 cells [1]; Homo sapiens, MCF7, 20 μM, 96 h): 40.5%
- viability at 50 µM (MCF-7 cells [1]; Homo sapiens, MCF7, 24 h): 62.7%
- viability at 50 µM (MCF-7 cells [1]; Homo sapiens, MCF7, 48 h): 43.4%
- viability at 50 µM (MCF-7 cells [1]; Homo sapiens, MCF7, 72 h): 28%
- viability at 50 µM (MCF-7 cells [1]; Homo sapiens, MCF7, 96 h): 18.4%
- viability at 100 µM (MCF-7 cells [1]; Homo sapiens, MCF7, 24 h): 57.46 ± 0.02%
- viability at 100 µM (MCF-7 cells [1]; Homo sapiens, MCF7, 48 h): 33.25 ± 0.02%
- viability at 100 µM (MCF-7 cells [1]; Homo sapiens, MCF7, 72 h): 20.25 ± 0.01%
- viability at 100 µM (MCF-7 cells [1]; Homo sapiens, MCF7, 96 h): 13.4%
- IC50 (MCF-7 cells [1]; Homo sapiens, MCF7, 24 h after treatment): 121 µM
- IC50 (MCF-7 cells [1]; Homo sapiens, MCF7, 48 h after treatment): 16.2 µM
- IC50 (MCF-7 cells [1]; Homo sapiens, MCF7, 72 h after treatment): 17 µM
- IC50 (MCF-7 cells [1]; Homo sapiens, MCF7, 96 h after treatment): 16.1 µM
- MCF-12A cell morphology / proliferation (MCF-12A cells): continued to proliferate
- MCF-7 cell morphology / proliferation (MCF-7 cells [2]): remained stable by stopping cell division without being toxic
